This test addresses T1, Keap1-Nrf2 PPI (Keap1 kelch domain protein, FITC labeled Nrf2 9 peptide) (Homo sapiens, UniProt Q14145).
T1 construct: 10 μL 12 nm Keap1 kelch domain protein
The test can be described thus: Fluorescence polarization based Keap1-Nrf2 PPI competitive inhibition experiment (FP experiment). The class given is binding. The following applies: FP experiment. On the procedure: 1. Keap1-Nrf2 PPI Competitive Inhibition Test Based on Fluorescence Polarization (FP Experiment)
The 384-well blackboard model 3676 produced by Corning is used in FP experiment, with a total volume of reaction of 40 μL. 20 μL compound, 10 μL 4 nm FITC labeled Nrf2 9 peptide, 10 μL 12 nm Keap1 kelch domain protein are added to the well in order. 20 μL 200 nM DDO-1002, 10 μL 4 nM of the FITC-labeled Nrf2 9 peptide, 10 μL 12 nM of Keap1 Ketch domain protein are used in the positive control; 20 μL HEPES buffer, 10 μL 4 nM of the FITC-labeled Nrf2 9 peptide, 10 μL, 12 nM of Keap1 Kelch domain protein are used in the negative control; 10 μL 4 nM of the FITC-labeled Nrf2 9 peptide, 30 μL of HEPES buffer are used in the blank control. After addition is complete, they are incubated for 30 min at room temperature. The detection instrument is a SpectraMax Multi-Mode Microplate Reader (Molecular Devices), the excitation light wavelength selected is 485 nm, the emission light wavelength is 545 nm, and the fluorescence intensity in the horizontal and vertical directions is detected to calculate the polarization value. The inhibition rate is calculated as: inhibition %=[…]/(Pmax−Pmin) wherein Pobs is the polarization value of the compound well, Pmax is the polarization value of the negative control well, and Pmin is the polarization value of the blank well. Data treatment is performed using GraphPad Prism, and IC50 of the compound is calculated using a concentration-inhibition rate curve. The IC50 values for each compound are as previously described.

Where [1] appears, read: general formula I / II compounds.
The mark [2] stands for this setting: general formula V / VI compounds.
The mark [3] stands for this setting: general formula III compounds, unit inferred.

T1 sequence (Q14145 321-609 limits assumed): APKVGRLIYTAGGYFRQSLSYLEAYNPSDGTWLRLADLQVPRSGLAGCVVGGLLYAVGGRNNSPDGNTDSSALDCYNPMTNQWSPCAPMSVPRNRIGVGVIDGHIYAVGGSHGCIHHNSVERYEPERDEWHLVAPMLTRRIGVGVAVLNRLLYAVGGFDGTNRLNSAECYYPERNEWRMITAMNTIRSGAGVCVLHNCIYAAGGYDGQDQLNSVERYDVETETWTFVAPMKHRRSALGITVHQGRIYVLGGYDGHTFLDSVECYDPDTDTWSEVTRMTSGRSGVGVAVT

In general, IC50 refers to the concentration that gives 50% inhibition. Higher therefore signals lower potency. In the case of `C#CCN(c1ccc(N(CC(=O)O)S(=O)(=O)c2ccc(NC(C)=O)cc2)c2ccccc12)[C@@H](C)CC(=O)O` [DDO-1189, (S)-3-((4-((4-acetamido-N-(carboxymethyl)phenyl)sulfonamido)naphthalen-1-yl)(prop-2-yn-1-yl)amino) butanoic acid], for the setting “general formula IV compounds”, the half-maximal inhibitory concentration (IC50) was 630 nM.
As for `COc1ccc(S(=O)(=O)N(CC(=O)O)c2ccc(N(Cc3ccc(Cl)cc3)[C@@H](C)CC(=O)O)c3ccccc23)cc1` [DDO-1165, (S)-3-((4-((N-(carboxymethyl)-4-methoxyphenyl)sulfonamido)naphthalen-1-yl) (4-chlorobenzyl)amino) butanoic acid], the IC50 under setting [1] came to 272 nM.
Take `COc1ccc(S(=O)(=O)Nc2ccc(N(Cc3ccccc3)[C@@H](C)CC(=O)O)c3ccccc23)cc1` [DDO-1160]: the IC50 under setting [1] was found to be 860 nM.
In turn, `C#CCN(c1ccc(N(CC(=O)O)S(=O)(=O)c2cccc(OC)c2)c2ccccc12)[C@@H](C)CC(=O)O` [DDO-1201] had an IC50 (general formula IV compounds) of 130 nM.
The compound `C#CCN(c1ccc(N(CC(=O)O)S(=O)(=O)c2ccc(OC)c(F)c2)c2ccccc12)[C@@H](C)CC(=O)O` [DDO-1213] gave an IC50 under setting [2] of 155 nM.
As for `C#CCN(c1ccc(N(CC(=O)O)S(=O)(=O)c2ccc(Cl)cc2)c2ccccc12)[C@@H](C)CC(=O)O` [DDO-1193, (S)-3-((4-((N-(Carboxymethyl)-4-chlorophenyl)sulfonamido)naphthalen-1-yl)(prop-2-yn-1-yl)amino) butanoic acid], the IC50 (general formula IV compounds) was found to be 950 nM.
Under setting [1], `COc1ccc(S(=O)(=O)Nc2ccc(N(Cc3ccc(C)cc3)[C@@H](C)CC(=O)O)c3ccccc23)cc1` [DDO-1162, 3-((4-((4-methoxyphenyl)sulfonamido)naphthalen-1-yl) (4-methylbenzyl)amino) butanoic acid] came in with an IC50 of 1910 nM.
Still for that read-out and setting: next, `COc1ccc(S(=O)(=O)N(CC(=O)O)c2ccc(N(Cc3ccccc3F)[C@@H](C)CC(=O)O)c3ccccc23)cc1` [DDO-1179]: 75 nM; `COc1ccc(S(=O)(=O)N(CC(=O)O)c2ccc(N(Cc3ccccc3Cl)[C@@H](C)CC(=O)O)c3ccccc23)cc1` [DDO-1175, (S)-3-((4-((N-(Carboxymethyl)-4-methoxyphenyl)sulfonamido)naphthalen-1-yl) (2-chlorobenzyl)amino) butanoic acid]: 109 nM.
`C#CCN(c1ccc(N(CC(=O)O)S(=O)(=O)c2c(C)cc(OC)c(C)c2C)c2ccccc12)[C@@H](C)CC(=O)O` [DDO-1219, (S)-3-((4-((N-(Carboxymethyl)-4-methoxy-2,3,6-trimethylphenyl)sulfonamidyl)naphthalen-1-yl)(prop-2-yn-1-yl)amino) butanoic acid] had an IC50 under setting [2] of 7.1 nM.
Take `C#CCN(c1ccc(NS(=O)(=O)c2ccc(Cl)cc2)c2ccccc12)[C@@H](C)CC(=O)O` [DDO-1192, (S)-3-((4-((4-chlorophenyl)sulfonamido)naphthalen-1-yl)(prop-2-yn-1-yl)amino) butanoic acid]: the IC50 under setting [3] is 1700 nM.
`C#CCN(c1ccc(NS(=O)(=O)c2ccc(OC)c(OC)c2)c2ccccc12)[C@@H](C)CC(=O)O` [DDO-1210, (S)-3-((4-((3,4-dimethoxyphenyl)sulfonamido)naphthalen-1-yl) (prop-2-yn-1-yl)amino) butanoic acid] came in with an IC50 under setting [2] of 72 nM.
On the same count and under the same terms, then `C#CCN(c1ccc(NS(=O)(=O)c2c(C)cc(OC)c(C)c2C)c2ccccc12)[C@@H](C)CC(=O)O` [DDO-1218, (S)-3-((4-((4-methoxy-2,3,6-trimethylphenyl)sulfonamido)naphthalen-1-yl) (prop-2-yn-1-yl)amino) butanoic acid], with 23 nM.
`C#CCN(c1ccc(N(CC(=O)O)S(=O)(=O)c2ccccc2OC)c2ccccc12)[C@@H](C)CC(=O)O` [DDO-1199] registered an IC50 (general formula IV compounds) of 290 nM.
Under setting [2], `C#CCN(c1ccc(NS(=O)(=O)c2ccc(OC)c(C)c2)c2ccccc12)[C@@H](C)CC(=O)O` [DDO-1216, (S)-3-((4-((4-methoxy-3-methylphenyl)sulfonamido)naphthalen-1-yl) (prop-2-yn-1-yl)amino) butanoic acid] registered a 50% inhibitory concentration (IC50) of 72 nM.
Consider `COc1ccc(S(=O)(=O)Nc2ccc(N(Cc3cccc(Cl)c3)[C@@H](C)CC(=O)O)c3ccccc23)cc1` [DDO-1172, (S)-3-((3-chlorobenzyl) (4-((4-methoxyphenyl)sulfonamido)naphthalen-1-yl)amino) butanoic acid], for which the IC50 under setting [1] came out at 3780 nM.
For `C#CCN(c1ccc(N(CC(=O)O)S(=O)(=O)c2ccc(C(C)C)cc2)c2ccccc12)[C@@H](C)CC(=O)O` [DDO-1197, (S)-3-((4-((N-(carboxymethyl)-4-isopropylphenyl)sulfonamido)naphthalen-1-yl)(prop-2-yn-1-yl)amino) butanoic acid], where the note is “general formula IV compounds”, the IC50 stood at 80 nM.
Same read-out and setting: then `C#CCN(c1ccc(N(CC(=O)O)S(=O)(=O)c2ccc(F)cc2)c2ccccc12)[C@@H](C)CC(=O)O` [DDO-1191, (S)-3-((4-((N-(carboxymethyl)-4-fluorophenyl)sulfonamido)naphthalen-1-yl) (prop-2-yn-1-yl)amino) butanoic acid], with 2000 nM.
For `C#CCN(c1ccc(NS(=O)(=O)c2ccc(C(C)C)cc2)c2ccccc12)[C@@H](C)CC(=O)O` [DDO-1196, (S)-3-((4-((4-isopropylphenyl)sulfonamido)naphthalen-1-yl)(prop-2-yn-1-yl)amino) butanoic acid], the half-inhibitory concentration (IC50) under setting [3] stood at 220 nM.
In the case of `C#CCN(c1ccc(NS(=O)(=O)c2ccc3c(c2)CCO3)c2ccccc12)[C@@H](C)CC(=O)O` [DDO-1222, (S)-3-((4-((2,3-dihydrobenzofuran)-5-sulfonamido)naphthalen-1-yl) (prop-2-yn-1-yl)amino) butanoic acid], the IC50 under setting [2] amounted to 160 nM.
For the setting “general formula IV compounds”, `C#CCN(c1ccc(N(CC(=O)O)S(=O)(=O)c2ccccc2C)c2ccccc12)[C@@H](C)CC(=O)O` [DDO-1203, (S)-3-((4-((N-(Carboxymethyl)-methylphenyl)sulfonamido)naphthalen-1-yl)(prop-2-yn-1-yl)amino) butanoic acid] showed an IC50 of 170 nM.
For `COc1ccc(S(=O)(=O)Nc2ccc(N(Cc3cccc(C)c3)[C@@H](C)CC(=O)O)c3ccccc23)cc1` [DDO-1168, (S)-3-((4-((4-methoxyphenyl)sulfonamido)naphthalen-1-yl) (3-methylbenzyl)amino) butanoic acid], the IC50 under setting [1] amounted to 1660 nM.
Under setting [2], `C#CCN(c1ccc(N(CC(=O)O)S(=O)(=O)c2ccc(OC)c(Cl)c2)c2ccccc12)[C@@H](C)CC(=O)O` [DDO-1215] returned a 50% inhibitory concentration (IC50) of 40 nM.
Turning to `C#CCN(c1ccc(NS(=O)(=O)c2ccc(C)cc2C)c2ccccc12)[C@@H](C)CC(=O)O` [DDO-1204, (S)-3-((4-((2,4-dimethylphenyl)sulfonamido)naphthalen-1-yl) (prop-2-yn-1-yl)amino) butanoic acid], the 50% inhibitory concentration (IC50) under setting [3] was 93 nM.
Same read-out and setting: next, `C#CCN(c1ccc(NS(=O)(=O)c2cccc(OC)c2)c2ccccc12)[C@@H](C)CC(=O)O` [DDO-1200, (S)-3-((4-((3-methoxyphenyl)sulfonamido)naphthalen-1-yl)(prop-2-yn-1-yl)amino) butanoic acid]: 240 nM.
In turn, `COc1ccc(S(=O)(=O)N(CC(=O)O)c2ccc(N(Cc3ccccc3)[C@@H](C)CC(=O)O)c3ccccc23)cc1` [DDO-1161, (S)-3-(benzyl(4-((N-(carboxymethyl)-4methoxyphenyl)sulfonamido)naphthalen-1-yl) (benzyl)amino) butanoic acid] had an IC50 under setting [1] of 108 nM.
